# Test results: PMC5216742, “Discovery and characterization of a novel potent type II native and mutant BCR-ABL inhibitor (CHMFL-074) for Chronic Myeloid Leukemia (CML)” (Oncotarget, 2016)
# Experiments:
# [1] = target: T1, ABL1(E255K)-phosphorylated (Homo sapiens, UniProt P00519, E255K); assay: KinomeScan profiling; assay type: binding; conditions: 1 µM CHMFL-074; read-out: % Control
# T1 construct: purchased DiscoveRx (KinomeScan service)
# [2] = target: T2, ABL1(Q252H)-nonphosphorylated (Homo sapiens, UniProt P00519, Q252H); assay: KinomeScan profiling; assay type: binding; conditions: 1 µM CHMFL-074; read-out: % Control
# T2 construct: purchased DiscoveRx (KinomeScan service)
# [3] = target: T3, ABL1(Y253F)-phosphorylated (Homo sapiens, UniProt P00519, Y253F); assay: KinomeScan profiling; assay type: binding; conditions: 1 µM CHMFL-074; read-out: % Control
# T3 construct: purchased DiscoveRx (KinomeScan service)
# ABL1-phosphorylated = target: T4, ABL1-phosphorylated (Homo sapiens, UniProt P00519); assay: KinomeScan profiling; assay type: binding; conditions: 1 µM CHMFL-074; read-out: % Control
# T4 construct: purchased DiscoveRx (KinomeScan service)
# ABL2 = target: T5, ABL2 (Homo sapiens, UniProt P42684); assay: KinomeScan profiling; assay type: binding; conditions: 1 µM CHMFL-074; read-out: % Control
# T5 construct: purchased DiscoveRx (KinomeScan service)
# ABL1 kinase = target: T6, ABL1 kinase (Homo sapiens, UniProt P00519); assay: Invitrogen Z'LYTE biochemical kinase assay
# T6 construct: A construct encoding c-ABL residues 229–500 with a His tag; made in house; host or cells: SF9 insect cells (baculovirus, pFASTHTA)
# Procedure: A construct encoding c-ABL residues 229–500 with a His tag was cloned into baculovirus expression vector pFASTHTA. The protein was expressed by infecting SF9 cells with high titer viral stocks for 48 hours. Cells were harvested and lysed in 30 mM Tris pH 7.4, 150 mM NaCl, 3 mM KCl, 10% glycerol, 1 mM PMSF, 2 mM TCEP, 1 mM ADP, 20 mM Imidazole. The supernatant was loaded to Ni-NTA Column (QIAGEN, 1018244). Then the proteins were gradient washed using the same buffer with 50 mM, 100 mM imidazole, then the ABL protein was eluted with Elution buffer (20 mM Tris, 500 mM NaCl, 1% glycerol, 1 mM TCEP, 0.5 mM ADP, 300 mM Imidazole, pH 8.0). The eluted protein was loaded on desalt column PD-10(GE) to change the buffer to 20 mM Tris, 500 mM NaCl, 1% glycerol, 2 mM TCEP, pH 8.0. The protein was concentrated to 1 mg/ml and aliquots were frozen and stored at −80 °C.
# The fluorescence resonance energy transfer-based Z′-LYTE kinase assay (Invitrogen, USA) was used to evaluate the IC50 value of CHMFL-074 for inhibition of ABL and KIT kinase. […] After 1 hour incubation, the reaction was developed and terminated, and the fluorescence measured with an automated plate reader (SpectraMax I3, USA). […]
# PDGFRα = PDGFRα (Homo sapiens, UniProt P16234); assay: Promega ADP-Glo biochemical kinase assay; conditions: 100 μM ATP, read-out: IC50 against PDGFRα
# Procedure: (§1) The ADP-Glo™ kinase assay (Promega, USA) was used to screen CHMFL-074 for its PDGFRα/PDGFRβ inhibition effects. […] The reaction in each tube was started immediately by adding ATP and kept going for an hour under 37°C. After the tube cooled for 5 minutes at room temperature, 5 μL solvent reactions were carried out in a 384-well plate. Then 5 μL of ADP-Glo™ reagent was added into each well to stop the reaction and consume the remaining […] within 40 minutes. […] Luminescence signal was measured with an automated plate reader (Envision, USA) and the dose-response curve was fitted using Prism 5.0 (GraphPad Software Inc., San Diego, CA).
# PDGFRβ = PDGFRβ (Homo sapiens, UniProt P09619); assay: Promega ADP-Glo biochemical kinase assay; conditions: 100 μM ATP, read-out: IC50 against PDGFRβ
# Procedure: as §1
# K562 = assay: Colony formation assay; assay type: cell-based; conditions: Homo sapiens
# Procedure: (§2) In brief, 1 mL of 3% agarose combined with 1 mL KU812, MEG01, or K562 growth media was used as the bottom agar in a 6-well plate. 800 cells in 1.7 mL growth media was combined with 0.3 ml of 3% agarose solution and plated on top of the bottom layer. Cells were maintained in a humidified 5% CO2 incubator at 37°C for 15 days, and continuously treated with serially diluted CHMFL-074 in a soft agar medium. On the 15th day, the number of colonies in each well were counted and each measurement was performed in triplicate.
# KU812 = assay: Colony formation assay; assay type: cell-based; conditions: Homo sapiens
# Procedure: as §2
# MEG-01 = assay: Colony formation assay; assay type: cell-based; conditions: Homo sapiens
# Procedure: as §2
# [4] = test system: normal human B-cells purified from the peripheral blood; assay: Proliferation assay on normal cells from peripheral blood; assay type: cell-based; conditions: at 1 μM
# Procedure: Mononuclear cells were isolated from CML patients or healthy donors by density-gradient centrifugation through Ficoll (Beijing Solarbio Science & Technology Co., Ltd., Beijing, China) at 400 g for 30 min, followed by two washes in 1× phosphate-buffered saline. Cells were then cultured in liquid culture (RPMI1640, supplemented with 20% FBS). All blood samples from CML patients and healthy donors were obtained through written consent under approval of the Chinese Academy of Sciences Institutional Review Board. The ethics committees approved the consent Procedure. CML primary patient cells were tested in liquid culture (RPMI1640, supplemented with 20% FBS) in the presence of different concentrations of CHMFL-074. The trypan blue exclusion assay was used for quantification of cells for seeding for before Cell-Titer Glo assays (Promega, USA). The Cell-Titer Glo assay was used for proliferation studies and carried out according to manufacturer's instructions. Cell viability is reported as percentages of control (untreated) cells.
# T5 sequence (P42684 whole entry): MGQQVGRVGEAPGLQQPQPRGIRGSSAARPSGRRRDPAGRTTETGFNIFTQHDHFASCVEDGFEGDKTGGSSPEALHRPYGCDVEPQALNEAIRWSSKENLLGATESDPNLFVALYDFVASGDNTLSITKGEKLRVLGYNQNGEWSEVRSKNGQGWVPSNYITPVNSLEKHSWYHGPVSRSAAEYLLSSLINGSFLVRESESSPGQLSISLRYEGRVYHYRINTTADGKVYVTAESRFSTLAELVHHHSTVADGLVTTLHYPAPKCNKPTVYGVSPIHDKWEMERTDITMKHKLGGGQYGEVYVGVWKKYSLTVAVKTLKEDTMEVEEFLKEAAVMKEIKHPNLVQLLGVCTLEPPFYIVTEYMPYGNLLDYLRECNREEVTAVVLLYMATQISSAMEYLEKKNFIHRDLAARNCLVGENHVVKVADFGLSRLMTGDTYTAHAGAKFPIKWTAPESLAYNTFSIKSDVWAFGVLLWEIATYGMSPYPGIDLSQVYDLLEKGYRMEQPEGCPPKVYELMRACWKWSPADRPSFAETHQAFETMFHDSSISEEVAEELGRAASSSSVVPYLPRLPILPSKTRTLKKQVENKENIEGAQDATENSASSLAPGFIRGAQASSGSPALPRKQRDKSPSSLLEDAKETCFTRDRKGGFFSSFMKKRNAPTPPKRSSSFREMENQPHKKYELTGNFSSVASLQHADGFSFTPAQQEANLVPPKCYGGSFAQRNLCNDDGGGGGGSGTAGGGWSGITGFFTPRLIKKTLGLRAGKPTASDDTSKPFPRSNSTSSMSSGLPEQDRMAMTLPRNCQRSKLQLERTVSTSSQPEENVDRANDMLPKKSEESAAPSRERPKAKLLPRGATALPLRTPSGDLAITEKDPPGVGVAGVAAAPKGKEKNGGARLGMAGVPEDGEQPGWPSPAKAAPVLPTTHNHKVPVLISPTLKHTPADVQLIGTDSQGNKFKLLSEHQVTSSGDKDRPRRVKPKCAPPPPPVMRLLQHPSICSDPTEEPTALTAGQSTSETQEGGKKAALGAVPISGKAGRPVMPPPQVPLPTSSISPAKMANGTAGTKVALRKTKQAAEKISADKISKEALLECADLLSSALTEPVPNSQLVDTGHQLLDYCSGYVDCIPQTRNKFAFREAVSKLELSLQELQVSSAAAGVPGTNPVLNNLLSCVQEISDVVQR
# Chain of PDGFRβ (P09619 33-1106): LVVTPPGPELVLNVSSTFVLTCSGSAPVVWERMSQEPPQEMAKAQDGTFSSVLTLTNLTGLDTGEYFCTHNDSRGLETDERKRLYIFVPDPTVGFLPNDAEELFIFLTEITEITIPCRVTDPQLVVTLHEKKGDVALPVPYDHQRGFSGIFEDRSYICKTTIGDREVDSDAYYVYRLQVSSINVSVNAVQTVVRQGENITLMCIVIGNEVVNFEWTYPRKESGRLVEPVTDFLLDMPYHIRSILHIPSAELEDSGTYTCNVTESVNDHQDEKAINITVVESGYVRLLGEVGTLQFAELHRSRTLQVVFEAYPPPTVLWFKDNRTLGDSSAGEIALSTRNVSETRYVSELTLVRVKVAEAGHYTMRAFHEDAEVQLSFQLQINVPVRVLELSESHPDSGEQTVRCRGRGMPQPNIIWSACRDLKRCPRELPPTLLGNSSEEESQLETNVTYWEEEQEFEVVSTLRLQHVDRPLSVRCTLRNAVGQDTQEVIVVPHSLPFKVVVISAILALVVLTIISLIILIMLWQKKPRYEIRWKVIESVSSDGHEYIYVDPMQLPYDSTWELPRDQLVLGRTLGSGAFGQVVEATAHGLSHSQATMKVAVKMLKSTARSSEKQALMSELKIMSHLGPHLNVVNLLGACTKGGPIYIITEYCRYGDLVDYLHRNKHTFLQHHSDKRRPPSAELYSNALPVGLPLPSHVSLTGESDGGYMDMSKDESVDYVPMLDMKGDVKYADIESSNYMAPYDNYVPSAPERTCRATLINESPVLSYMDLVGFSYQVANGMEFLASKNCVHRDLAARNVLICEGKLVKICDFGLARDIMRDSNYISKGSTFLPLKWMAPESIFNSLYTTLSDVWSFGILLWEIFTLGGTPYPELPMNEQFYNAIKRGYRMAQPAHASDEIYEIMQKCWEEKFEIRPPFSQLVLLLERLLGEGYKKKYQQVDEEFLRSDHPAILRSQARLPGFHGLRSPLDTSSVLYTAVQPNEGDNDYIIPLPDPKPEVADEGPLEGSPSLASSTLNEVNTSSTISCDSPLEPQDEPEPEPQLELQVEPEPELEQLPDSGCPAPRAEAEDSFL
# Chain of PDGFRα (P16234 24-1089): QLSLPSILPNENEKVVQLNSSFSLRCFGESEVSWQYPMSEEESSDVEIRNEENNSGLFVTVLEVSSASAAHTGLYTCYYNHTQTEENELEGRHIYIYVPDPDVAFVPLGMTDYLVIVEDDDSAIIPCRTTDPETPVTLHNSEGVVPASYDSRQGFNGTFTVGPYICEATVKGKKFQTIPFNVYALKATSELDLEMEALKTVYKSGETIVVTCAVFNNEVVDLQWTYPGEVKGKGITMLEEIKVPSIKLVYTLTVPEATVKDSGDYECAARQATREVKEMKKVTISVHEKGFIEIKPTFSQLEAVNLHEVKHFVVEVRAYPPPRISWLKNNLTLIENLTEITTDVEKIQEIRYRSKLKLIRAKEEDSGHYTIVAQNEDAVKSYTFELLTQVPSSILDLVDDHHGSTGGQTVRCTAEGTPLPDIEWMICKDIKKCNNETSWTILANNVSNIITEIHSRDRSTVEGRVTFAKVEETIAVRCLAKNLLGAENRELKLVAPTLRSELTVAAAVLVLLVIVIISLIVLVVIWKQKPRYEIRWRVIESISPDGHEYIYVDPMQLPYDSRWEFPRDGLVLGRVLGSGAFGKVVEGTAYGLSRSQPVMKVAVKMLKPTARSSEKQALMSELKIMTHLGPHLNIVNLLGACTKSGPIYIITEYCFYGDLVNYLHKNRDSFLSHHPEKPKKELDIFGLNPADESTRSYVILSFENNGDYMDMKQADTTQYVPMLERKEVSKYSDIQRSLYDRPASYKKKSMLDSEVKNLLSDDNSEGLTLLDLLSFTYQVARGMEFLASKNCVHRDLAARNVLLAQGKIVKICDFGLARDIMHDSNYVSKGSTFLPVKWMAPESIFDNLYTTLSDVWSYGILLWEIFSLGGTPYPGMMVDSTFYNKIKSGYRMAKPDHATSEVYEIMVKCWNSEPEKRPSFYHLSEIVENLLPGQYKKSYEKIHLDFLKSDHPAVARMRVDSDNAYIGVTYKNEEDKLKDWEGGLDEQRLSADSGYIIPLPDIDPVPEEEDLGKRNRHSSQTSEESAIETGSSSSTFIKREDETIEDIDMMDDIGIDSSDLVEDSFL
smiles,measurement,setting,value
Cc1ccc(NC(=O)c2ccc(CN3CCN(C)CC3)c(C(F)(F)F)c2)cc1OC1CCN(C(=O)c2cccnc2)CC1 [CHMFL-074],remaining binding at 1 µM,[1],0.3%
same,remaining binding at 1 µM,[2],0.75%
same,remaining binding at 1 µM,[3],0.3%
same,remaining binding at 1 µM,ABL1-phosphorylated,0.2%
same,remaining binding at 1 µM,ABL2,0.8%
same,IC50,ABL1 kinase,25 nM
same,IC50,PDGFRα,71 nM
same,IC50,PDGFRβ,88 nM
same,EC50,"K562; 360 h, K562, soft agar, 15 days",4 nM
same,IC50,"K562; K562, read-out: anti-colony formation IC50",4 nM
same,EC50,"KU812; 360 h, KU812, soft agar, 15 days",8 nM
same,IC50,"KU812; KU812, read-out: anti-colony formation IC50",8 nM
same,EC50,"MEG-01; 360 h, MEG-01, soft agar, 15 days",12 nM
same,IC50,"MEG-01; MEG-01, read-out: anti-colony formation IC50",12 nM
same,inhibitory activity against normal human B-cells,[4],did not show any inhibitory activities
